Measured values: article PMC11587516 (ACS Chemical Neuroscience, 2024)
pIC50: −log10 of the molar value. Like-named read-outs stand apart in the source and are kept apart here.

What was measured:
[1] = molecular target: T1, hGAT2 (Homo sapiens, UniProt Q9NSD5); assay: [3H]GABA uptake assay, CHO cells stably expressing hGAT2; assay type: cell-based
T1 construct: expressed in transfected cells
T1 sequence (Q9NSD5 1-602): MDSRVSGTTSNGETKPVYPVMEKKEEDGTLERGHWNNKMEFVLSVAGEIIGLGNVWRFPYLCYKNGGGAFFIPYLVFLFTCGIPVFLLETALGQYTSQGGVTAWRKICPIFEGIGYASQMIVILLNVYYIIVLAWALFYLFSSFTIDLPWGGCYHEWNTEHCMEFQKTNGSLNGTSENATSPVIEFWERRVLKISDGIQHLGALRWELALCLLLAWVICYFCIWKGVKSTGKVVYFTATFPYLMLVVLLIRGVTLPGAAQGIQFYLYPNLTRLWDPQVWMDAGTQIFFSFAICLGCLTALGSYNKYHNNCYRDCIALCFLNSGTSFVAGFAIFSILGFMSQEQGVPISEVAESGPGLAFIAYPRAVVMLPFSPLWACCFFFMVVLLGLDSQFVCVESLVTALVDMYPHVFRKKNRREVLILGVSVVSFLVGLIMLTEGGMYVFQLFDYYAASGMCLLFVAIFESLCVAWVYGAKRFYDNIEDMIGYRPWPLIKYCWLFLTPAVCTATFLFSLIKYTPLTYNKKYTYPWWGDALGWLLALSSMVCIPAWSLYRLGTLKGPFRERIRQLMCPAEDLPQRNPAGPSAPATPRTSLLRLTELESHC

[2] = system: SH-SY5Y neuroblastoma cells; details: 1 mM MPP+, 24 h
Method: The model used mimics certain aspects of neurodegenerative diseases, where GABAergic dysfunction and neuronal death are prominent features. […] The neuroprotection studies were performed to determine the ability of compound 9 to prevent MPP^+ (1-methyl-4-phenylpyridinium) toxicity at a concentration of 1 mM, which was coincubated with compound 9 for 24 h. MPP^+ is a well-established neurotoxin that selectively damages neurons, making it a commonly used agent to model aspects of neurodegenerative conditions in vitro. It induces oxidative stress and mitochondrial dysfunction, leading to cell death. Cell viability was detected by a standard MTS assay.
Neuroprotection studies were performed according to the procedure described previously.[27] In brief, SH-SY5Y CRL-2266 (American Type Culture Collection, Manassas, VG) were seeded in microplate at a concentration of 2.5 × 10^4 cells/well in 100 μL of culture medium and cultured for 24 h at 37 °C and 5% CO2. […] Next, MPP^+ was added at a final concentration of 1 mM and the cells were placed in the incubator. After 24 h of the compound coincubation with MPP^+, the CellTiter 96 AQueous Nonradioactive Cell Proliferation Assay (MTS) was performed. The test was purchased from Promega (Madison, WI). The absorbance was measured using a microplate reader EnSpire (PerkinElmer, Waltham, MA) at 490 nm. All results were shown as mean ± SD. The statistical significances were calculated by GraphPad Prism 6.0 software.

Question: `NC12CC(C(=O)O)(C1)C2` [Compound 9] was tested. Which pIC50 [1] did it give?
Answer: The pIC50 was under 4.00.

Question: And the inhibition at 100 µM ([1]; CHO, read-out: inhibition of GABA uptake)?
Answer: Its inhibition at 100 µM is about 25%.

Question: What about the “cell viability compared to MPP+ alone” value ([2]; 10 μM) of the same molecule?
Answer: The value was “increased cell viability”.

Question: What about the “cell viability compared to MPP+ alone” value ([2]; 50 μM) of the same molecule?
Answer: Its value is “significantly increased cell viability”.
